In patent US20030170312A1, “Method for coating solid particles with a thermofusible agent, and resulting coated solid particles” (priority 2000, published 2003):

Test: Particle size (mean/median diameter, D50) before and after coating
Format: physicochemical
From the text: On FIG. 1, the distribution of the particles before and after coating has been represented. As shown in this figure, the set of coated particles has the same distribution as that of the uncoated particles, showing not only that the particles were evenly coated, but also that the amount of coating is less. Thus, it is observed that the mean diameter of the particles before coating is equal to 176 micrometers, while the mean diameter of the coated particles is equal to 180 micrometers. […] FIG. 2 represents in parallel the distribution of the particles before and after coating. As shown in this figure, the set of coated particles has the same distribution as those of the uncoated particles, showing not only that the particles were evenly coated, but also that the amount of coating is less. Thus, it is observed that the mean diameter of the particles before coating is equal to 60 micrometers, while the mean diameter of the coated particles is equal to 75 micrometers. The table below represents the mean size of the ibuprofen particles (D50) before and after coating. FIG. 5 represents in parallel the distribution of the particles before and after coating.

With `CC(C)Cc1ccc(C(C)C(=O)O)cc1` (stereo not drawn) [5200I1014, ibuprofen] the “Mean (D50) size of the ibuprofen particles” value (Example 2: ibuprofen with PRECIROL in the proportion of 15%) was 130.0 μm.
In the case of `CC(=O)Nc1ccc(O)cc1` [compound 99292402, Paracetamol], the “Median (D50) particle size” value (Example 4: paracetamol with Precirol ATO 5, theoretical 6% by mass) is reported as 326.1 μm.
With `CC(C)Cc1ccc(C(C)C(=O)O)cc1` (stereo not drawn) [ibuprofen] the “mean diameter of the particles” value (Example 1: ibuprofen before and after coating with PRECIROL, coating 7% by weight) was 176 micrometers.
